Values quoted from earlier work, collected in patent US20240307300A1, “AN IMPROVED PROCESS FOR THE PREPARATION OF AN AQUEOUS OPHTHALMIC SOLUTION OF DIFLUPREDNATE” (SUN PHARMA ADVANCED RESEARCH COMPANY LIMITED, priority 2021, published 2024).

Settings: background statement

solubility in aqueous vehicle: practically insoluble
SMILES: CCCC(=O)O[C@]1(C(=O)COC(C)=O)CC[C@H]2[C@@H]3C[C@H](F)C4=CC(=O)C=C[C@]4(C)[C@@]3(F)[C@@H](O)C[C@@]21C [Difluprednate]
